The values below come from patent publication US5488051A, “Substituted 5,6-dihydro-5-oxo-1,4-dithiino-(2,3-d)-pyridazine-2,3-dicarbonitriles, compositions containing them and their use as antimicrobials” (The Dow Chemical Company, priority 1994, dated 1996).

Converted amounts (≈) assume the structure as drawn. Like-named read-outs stand apart in the source and are kept apart here.

One assay concerns Saccharomyces cerevisiae. The assay can be described thus: MIC for Saccharomyces cerevisiae, malt yeast agar. It is filed as cell-based, Saccharomyces cerevisiae ATCC 4105. Particulars: malt yeast agar, 30° C., 48 hours for yeast, read-out: Minimum Inhibitory Concentration (MIC), Sc. The essentials:
(§1)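 Agar dilution on malt yeast agar with compound (from 1% acetone/water solution) at final 0, 1.0, 2.5, 5, 10, 25, 50, 100, 250, 500 ppm. Plates inoculated by replicator with saline suspensions (1:9 diluted) of 7-day cultures; incubated at 30 °C, read at 48 h for yeast and 72 h for fungi.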

Assay [1] has as its system Pseudomonas aeruginosa (PRD-10). The assay can be described thus: MIC for Pseudomonas aeruginosa PRD-10, nutrient agar. Particulars: 30° C., 48 hours, read-out: Minimum Inhibitory Concentration (MIC), PRD. It is filed as cell-based, Pseudomonas aeruginosa ATCC 15442. An outline of the steps:
(§2)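 Nutrient agar, pH 6.8 or 8.2; cpd 1–500 ppm final in agar (from 1% acetone/water soln), plates dried 24 h; inoculum 10^8 CFU/mL via Steer's replicator; 30° C, 48 h; growth/no growth read.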

Assay [2] relates to Enterobacter aerogenes (Ea). The assay can be described thus: MIC for Enterobacter aerogenes, nutrient agar. It is filed as cell-based, Enterobacter aerogenes ATCC 13048. Conditions: Klebsiella aerogenes, nutrient agar, 30° C., 48 hours, read-out: Minimum Inhibitory Concentration (MIC), Ea. The essentials: as §2
Assay [3] relates to Klebsiella pneumonias (Kp). Kind of assay: MIC for Klebsiella pneumonias, nutrient agar. It is filed as cell-based, Klebsiella pneumonias ATCC 8308. Conditions: 30° C., 48 hours, read-out: Minimum Inhibitory Concentration (MIC), Kp. An outline of the steps:
as §2

A further assay has as its system marine organism growth. The assay can be described thus: Marine antifouling rating of coated test panels exposed to marine environment. Particulars: scale 10 (completely free of growth) to 0 (completely covered); for Marine Antifouling Rating, 10 Week Test, Bottom Panel / Marine Antifouling Rating, 10 Week Test, Top Panel: 10 weeks; for Marine Antifouling Rating, 10 Week Test, Top Panel: untreated Control 7. More on the design: species or system marine organisms. The method, then:
Test panels are prepared from clear, rigid polyvinyl chloride film that is 0.381×10^-3 m thick and has one textured surface. The test panels are 0.1524 m by 0.1524 m squares that have 0.00635 m holes punched at corners on 0.127 m centers. A 0.102 square template, with a 0.067 m diameter hole at the center, is attached to the center of the textured surface of the test panels.
A candidate marine antifoulant compound (1.0 g) is stirred into a resinous latex binder (9.0 g). A portion of the compound/binder mixture (1.5 g) is added to the center of the test panel and uniformly spread over the circular area inside the template.
Water is added dropwise as needed to properly spread the compound/binder mixture. The template prevents the compound/binder mixture from spreading beyond the uncovered area. The test panel is allowed to sit for between ten to thirty minutes until the edge of the spread compound/binder mixture has dried. The template is then removed. The test panel is then allowed to dry for 8 to 12 hours at room temperature.
Two test panels are prepared for each candidate marine antifoulant compound. Two control test panels are also prepared by only treating with the resinous latex binder. One test panel of each candidate marine […] compound is attached over a white background to the topside of an exposure support apparatus. The second test panel is attached over a black background to the underside of the exposure support apparatus. The exposure support apparatus is placed horizontally 0.0254 m under a marine surface with the white background topside facing up. The exposure support apparatus is exposed to the marine environment for both 10 and 20 weeks during which time the control test panels become substantially covered with mature marine organism growth on both the topside and underside exposures.
After being removed from the exposure support apparatus, each test panel is inspected and rated for marine organism growth on both the treated and untreated areas of the test panel. The marine organisms present on the treated and untreated areas are noted. The presence of algae spores and bacterial slime are noted but not included in rating each test panel. The test panels are rated on a scale from 10 (representing completely free of marine organism growth) to 0 (representing completely covered with marine organism growth).
In Table V, the marine antifouling rating values for some of the compounds listed in Table I are set forth, as well as the ratings for control panels (using no marine antifouling compound, and referred to in Table V as "Control") and panels using a standard commercial marine antifouling compound (with copper (I) oxide (Cu2 O) as the active agent and referred to in Table V as "STANDARD II").

Assay [4] concerns Aureobasidium pullulan (Ap). The assay can be described thus: MIC for Aureobasidium pullulan, malt yeast agar. The format is cell-based, Aureobasidium pullulan ATCC 16622. Particulars: malt yeast agar; 30° C.; 48 hours for yeast and 72 hours for fungi; read-out: Minimum Inhibitory Concentration (MIC), Ap. The essentials:
as §1

Where [5] appears, read: bottom panel (black background), untreated Control 1.

In the case of `Cc1ccc(-n2ncc3c(c2=O)SC(C#N)=C(C#N)S3)cc1` [B, 5,6-dihydro-6-(4-methylphenyl)-5-oxo-1,4-dithiino-(2,3-d)-pyridazine-2,3-dicarbonitrile], the MIC is less than 10 µg/mL in the assay on Saccharomyces cerevisiae; more than 500 µg/mL in assay [1] (pH 6.8, nutrient agar); more than 500 µg/mL in assay [1] (pH 8.2, nutrient agar); more than 500 µg/mL in assay [2] (pH 6.8); more than 500 µg/mL in assay [2] (pH 8.2); 50 µg/mL (≈ 154 µM) in assay [3] (pH 6.8, nutrient agar). Further, the MIC is more than 500 µg/mL in assay [3] (pH 8.2, nutrient agar) and less than 10 µg/mL in assay [4]. Moreover, in the assay on marine organism growth (setting [5]), the “Marine Antifouling Rating, 10 Week Test, Bottom Panel” value is reported as 4. The “Marine Antifouling Rating, 10 Week Test, Top Panel” value in the assay with marine organism growth (top panel (white background)) was 10. Moreover, the “Marine Antifouling Rating, 20 Week Test, Bottom Panel” value with marine organism growth (20 weeks, bottom panel (black background), untreated Control 1) came to 1. Moreover, in the assay on marine organism growth (20 weeks, top panel (white background), untreated Control 1), the “Marine Antifouling Rating, 20 Week Test, Top Panel” value is listed as 1.
As to `N#CC1=C(C#N)Sc2c(cnn(-c3ccc(Br)cc3)c2=O)S1` [C, 5,6-dihydro-6-(4-bromophenyl)-5-oxo-1,4-dithiino-(2,3-d)-pyridazine-2,3-dicarbonitrile], the MIC in the assay on Saccharomyces cerevisiae was 10 µg/mL (≈ 25.7 µM); in assay [1] (pH 6.8, nutrient agar) it was more than 500 µg/mL; in assay [1] (pH 8.2, nutrient agar) it was more than 500 µg/mL; in assay [2] (pH 6.8), more than 500 µg/mL; in assay [2] (pH 8.2) it was more than 500 µg/mL; in assay [3] (pH 6.8, nutrient agar), more than 500 µg/mL. Moreover, the MIC was more than 500 µg/mL in assay [3] (pH 8.2, nutrient agar) and 10 µg/mL (≈ 25.7 µM) in assay [4]. Further, the “Marine Antifouling Rating, 10 Week Test, Bottom Panel” value in the assay on marine organism growth (setting [5]) came to 1. In addition, in the assay with marine organism growth (top panel (white background)), the “Marine Antifouling Rating, 10 Week Test, Top Panel” value stood at 7.
